The target in this assay is T1, drMfsd2a (Danio rerio isoform B Mfsd2a) (Danio rerio, UniProt Q6DEJ6, N214Q/N225Q/N509Q).
T1 construct: gene mfsd2ab; recombinant in Sf-9 insect cells, N-terminal 10xHis tag removed by TEV; truncated at D22 and D509; DDM-purified
T1 sequence (Q6DEJ6 22-509 N214Q/N225Q/N509Q): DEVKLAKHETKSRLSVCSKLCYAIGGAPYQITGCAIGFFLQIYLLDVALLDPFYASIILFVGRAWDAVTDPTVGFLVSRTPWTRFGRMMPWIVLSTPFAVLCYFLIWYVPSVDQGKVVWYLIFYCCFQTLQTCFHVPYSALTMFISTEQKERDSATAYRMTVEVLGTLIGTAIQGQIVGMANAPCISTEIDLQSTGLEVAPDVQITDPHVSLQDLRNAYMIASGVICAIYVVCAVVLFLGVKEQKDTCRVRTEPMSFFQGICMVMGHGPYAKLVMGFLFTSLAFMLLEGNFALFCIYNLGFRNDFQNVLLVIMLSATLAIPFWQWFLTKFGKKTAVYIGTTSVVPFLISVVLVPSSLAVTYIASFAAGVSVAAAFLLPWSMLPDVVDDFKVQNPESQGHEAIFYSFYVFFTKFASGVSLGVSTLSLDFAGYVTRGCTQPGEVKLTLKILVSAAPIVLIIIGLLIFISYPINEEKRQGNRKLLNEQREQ
Description: single-particle cryo-EM structures of Fab complex. The class given is binding. The conditions noted are these: co-purified endogenous lipid; identity modelled into lipid-like densities at four positions (1A, 1B, 2B, 3C); inward-facing; pH 8.0, 150 mM NaCl, 0.02% DDM.

In the case of `CC/C=C\C/C=C\C/C=C\CCCCCCCC(=O)OC[C@@H](O)COP(=O)([O-])OCC[N+](C)(C)C` [ALA-LPC], the “single-particle cryo-EM structures of Fab complex” value is given as “We therefore modeled ALA-LPC into the four distinct lipid-like densities”.

Source of the values: paper PMC10167227, “Lipid flipping in the omega-3 fatty-acid transporter” (Nature Communications, 2023).
